Measured values reported in ChEMBL document CHEMBL1131725, “Uridine phosphorylase inhibitors: chemical modification of benzyloxybenzyl-barbituric acid and its effects on urdpase inhibition” (Bioorg Med Chem Lett, 1999).

test: Inhibitory effect on human liver uridine phosphorylase

Compound | Ki [µM]
O=C1NC(=S)NC(=O)C1Cc1cccc(OCc2ccccc2)c1 | 3.7
O=C1NC(=O)C(Cc2cccc(OCc3ccccc3)c2)C(=O)N1 | 2.3
O=C1NC(=O)C(Cc2ccc(OCc3ccccc3)cc2)C(=O)N1 | 118
O=C1NC(=O)C(Cc2ccccc2OCc2ccccc2)C(=O)N1 | 41.8
